Results: US20060128997A1, “New method for the preparation of 1,5-bis(4-hydroxy-3-metoxy-phenyl)-penta-1,4-dien-3-one and derivatives with antitumoral properties” (priority 2003, published 2006)
“And” between values parts separate entries of the source, which are not always exact repeats. Equal entries are not always repeated. “Also recorded” adds a separate entry of the source. Where two headings read alike, the source gives them in different places.

Experiments:
786-0 (Renal tumor) = assay: Antiproliferate test in tumoral human cells, sulforrodamina B essay; format: cell-based
Protocol: (§1) Methodology utilized to perform the antitumoral tests:
(§2) Report of the Antiproliferate Test in Tumoral Human Cells with the Sulforrodamina B Essay
(§3) The cell lines used in the essays, described in the table 1, were maintained in recipients of 25 cm^2 (Nunc®), with 5 mL of culture medium RPMI 1640 supplemented with 5% bovine foetal serum (RPMI/SFB), at 37° C. in atmosphere of 5% of CO2 and 100% of humidity.
(§4) […] of cells in medium RPMI/SFB with 50 μg/mL of Gentamicin were inoculated in its respectives densities of inoculation, in plates of 96 compartments and incubated for 24 hours at 37° C. in atmosphere of 5% of CO2 and 100% of humidity.
(§5) After 24 hours, […] of the test substance were added in the following concentrations of 250; 25; 2.5; 0.2 μg/mL diluted in RPMI/SFB/gentamicin. In this moment the reading of one plate was performed for the determination of the T0 (cell control in the moment of the adding the samples). The other plates were incubated for 48 hours After this period the experiment was paused by adding the trichlorine acetic acid to further determine the protein content by means of […] essay with the sulforrodamina B.
(§6) The stocked solutions were developed by diluting the samples in dimethyl sulfoxide (DMSO) in the concentration of 0.1 g/mL. That solution was diluted by 400 times in RPMI/SFB/gentamicina to be added in the plates of 96 compartments being obtained so the a ideal concentration of DMSO (Skehan e cols. 1990).
(§7) At the end of the test, the plates of 96 compartments were centrifuged for 3 minutes at 2000 rpm, and they were fixed with 50 μL of a solution at 50% of trichloroacetic acid (TCA) at 4° C. To complete the cellular fixation, the plates were incubated for 1 hour at 4° C.
(§8) The plates were submitted to four consecutive washes with distillated water to remore the residues of TCA, medium, SFB and secondary metabolic and maintained at room temperature until the complete drying.
(§9) A coloration was performed by the adding of 50 μL SRB at 0.4% (weight/volume) diluted in acetic acid at 1%, and maintained at 4° C. for 30 minutes. Further, they were washed by 4 consecutive times with a solution of acetic acid 1%. The residue of the washing of the solution was removed and the plates were dried again at room temperature. The colorant linked to the cellular protein was diluted with a solution of Trizma Base (Sigma®) in concentration of […] and pH 10.5 for 5 minutes in ultrasonic bath. The spectrophotometric of absorbancy reading was performed in 560 nm in a micro plates lector (Labsystems Labsystems Multiskan® MCC/340).
(§10) The absorbancy averages were assessed having discounted its respective nulls and by means of the formula shown below was determined the growth inhibition (IC) of each tested sample.
(§11) If T≧T0 but <C, the drug was cytostatic and the formula used is 100×[(T−To)/(C−T0)]
(§12) If T<T0 the drug was cytotoxic and the formula used is […]
(§13) Considering that T is the absorbency average of the treated cell C is the cell control and T0 is the cell control in the addition day.
(§14) The obtained result was subtracted from 100% so obtaining the percentage of growth inhibition. The samples were considered actives since they presented growth inhibition dependant dose higher than 50% and selective lineage, that is, the preferential activity for only one type of tumoral cell or with cytostatic and/or killer cell effect well distinguished among the cell lines.
(§15) All the assays were performed in triplicates so that the presented results make reference to a representative experiment. The standard deflection from the average was always lower than 5%.

K-562 (Leukemia) = assay: as above; format: cell-based; conditions: K562
Protocol: as §1, §2, §3, §4, §5, §6, §7, §8, §9, §10, §11, §12, §13, §14, §15

[1] = system: NCIADR (Mamma tumor which expresses the phenotype resistance against multiple drugs); assay: as above; format: cell-based; conditions: for growth inhibition of the Mama NCI-ADR cell line, in words: resistance against multiple drugs
Protocol: as §1, §2, §3, §4, §5, §6, §7, §8, §9, §10, §11, §12, §13, §14, §15

HT29 (Colon tumor) = assay: as above; format: cell-based; conditions: HT-29
Protocol: as §1, §2, §3, §4
After 24 hours, […] of the test substance were added in the following concentrations of 250; 25; 2.5; 0.2 μg/mL diluted in RPMI/SFB/gentamicin. In this moment the reading of one plate was performed for the determination of the T0 (cell control in the moment of the adding the samples). […]
A coloration was performed by the adding of 50 μL SRB at 0.4% (weight/volume) diluted in acetic acid at 1%, and maintained at 4° C. for 30 minutes. […] The spectrophotometric of absorbancy reading was performed in 560 nm in a micro plates lector (Labsystems Labsystems Multiskan® MCC/340).
The absorbancy averages were assessed having discounted its respective nulls and by means of the formula shown below was determined the growth inhibition (IC) of each tested sample. […]

[2] = system: all cell lines (nine different types of human cancer); assay: Antiproliferate test, sulforrodamina B essay, whole panel of cell lines; format: cell-based; conditions: for concentration from which cytostatic activity (growth inhibition) is presented / cytostatic / antiproliferate activity (growth inhibition), in words: all cell lines
Protocol: as §1, §2, §3, §4, §5, §6, §7, §8, §9, §10, §11, §12, §13, §14, §15

HT-1080 = conditions: literature values (Banskota, Kimoto); unit not given; cited from earlier work
Colon L5-26 = conditions: literature values (Banskota, Kimoto); unit not given; cited from earlier work
[3] = cited from earlier work
OVCAR-3 (Ovary tumor) = assay: Antiproliferate test in tumoral human cells, sulforrodamina B essay; format: cell-based
Protocol: as §1, §2, §3, §4, §5, §6, §7, §8, §9, §10, §11, §12, §13, §14, §15

PC-3 (Prostate tumor) = assay: as above; format: cell-based; conditions: PC-03
Protocol: as §1, §2, §3, §4, §5, §6, §7, §8, §9, §10, §11, §12, §13, §14, §15

[4] = system: MCF7 (Normal mamma tumor); assay: as above; format: cell-based
Protocol: as §1, §2, §3, §4, §5, §6, §7, §8, §9, §10, §11, §12, §13, §14, §15

NCI460 (Lung tumor) = assay: as above; format: cell-based
Protocol: as §1, §2, §3, §4, §5, §6, §7, §8, §9, §10, §11, §12, §13, §14, §15

UACC62 (Melanoma) = assay: as above; format: cell-based
Protocol: as §1, §2, §3, §4, §5, §6, §7, §8, §9, §10, §11, §12, §13, §14, §15

[5] = Acute toxicity test (LD50, body weight, deaths); format: in vivo, albinic swiss mouses; conditions: for Initial Weight, Average ± dpm / Initial Weight, single animal: beginning of the test; for Final Weight, Average ± dpm / Final Weight, single animal: ending of the test
Protocol: Also a toxicological test with the sample denominated 37 compound (Acute Toxicity, LD50, via intraperitoneal).
Methodology utilized to perform the toxicological tests:
10 albinic swiss mouses are used, of the male gender, weighting approximately 25 g, for each of the treated groups and control;
Adaptation period: the animals are maintained in the tests room at least for 07 days before the beginning of the essay;
The animals are submitted to fast 12 hours before administering the test substance, done by gavage, at the time the animal's body weight is listed.
After the administration the animals are maintained in observation for a minimum period of 14 days.
The number of death animals for each one of the doses is listed and the LD50 is assessed by Litchfield and Wilcoxon's (1949) method and the animal's body weight is listed at the end of the acute toxicity test.

COc1cc(C=CC(=O)C=Cc2ccc(OCC=C(C)C)c(OC)c2)ccc1OCC=C(C)C [HB6, 1,5-Bis[3-metoxy-4-(3-methyl-but-2-eniloxy)phenyl]-penta-1,4-dien-3-one]
concentration with cytotoxic activity (cellular death) (786-0 (Renal tumor)): 250 µg/mL
concentration with cytotoxic activity (cellular death) (K-562 (Leukemia)): 250 µg/mL
concentration with cytotoxic activity (cellular death) ([1]; NCIADR): 250 µg/mL
concentration with cytotoxic activity (cellular death) (HT29 (Colon tumor)): 250 µg/mL
concentration from which cytostatic activity (growth inhibition) is presented [2]: ≥ 25 µg/mL
selectivity for the studied cell lines, in words ([2]; panel of cell lines): cellular selectivity for HT-29 and 786-0 cell lines

CC(C)=CCc1cc(C=CC(=O)O)cc(CC=C(C)C)c1O [Compound 3, 3,5-diprenyl-4-hydroxycinnamic acid]
Cytotoxicity HT-1080 (HT-1080): 45.47
Cytotoxicity Colon L5-26 (Colon L5-26): 59.32

COc1cccc2c1C(=O)c1c(O)c3c(c(O)c1C2=O)C[C@@](O)(C(=O)CO)C[C@@H]3O[C@H]1C[C@H](N)[C@H](O)[C@H](C)O1 [Doxorubicin, reference compound]
growth inhibition of the Mama NCI-ADR cell line, in words [1]: does not inhibit the growth; also recorded: did not inhibit the growth
toxicity, in words ([3]; in vivo): extremely toxic
LD50 ([3]; species and route not given): 20 mg/kg

COc1ccc(C=CC(=O)C=Cc2ccc(OC)c(OC)c2)cc1OC [HBM1, 1,5-Bis(3,4-dimetoxyphenyl)-penta-1,4-dien-3-one]
concentration with cytotoxic activity (cellular death) (OVCAR-3 (Ovary tumor)): 250 µg/mL
concentration with cytotoxic activity (cellular death) (PC-3 (Prostate tumor)): 250 µg/mL
concentration from which cytostatic activity (growth inhibition) is presented [2]: ≥ 0.25 µg/mL

COc1cc(C=CC(=O)C=Cc2ccc(O)c(OC)c2)ccc1O [Compound 37, 1,5-bis(4-hydroxy-3-methoxyphenyl)-penta-1,4-dien-3-one]
concentration with cytotoxic activity (cellular death) [4]: ≥ 0.25 µg/mL
concentration with cytotoxic activity (cellular death) (NCI460 (Lung tumor)): ≥ 0.25 µg/mL
concentration with cytotoxic activity (cellular death) [1]: ≥ 0.25 µg/mL
growth inhibition of the Mama NCI-ADR cell line, in words ([1]; listed as 37/01): strong cytostatic activity
growth inhibition of the Mama NCI-ADR cell line, in words ([1]; listed as our product): inhibited the growth
concentration with cytotoxic activity (cellular death) (UACC62 (Melanoma)): ≥ 0.25 µg/mL
cytostatic / antiproliferate activity (growth inhibition), in words [2]: cytostatic activity (growth inhibition) for all cell lines
concentration from which cytotoxic / killer cell activity (cellular death) is presented ([2]; all cell lines of the panel): ≥ 0.25 µg/mL
cytostatic / antiproliferate activity (growth inhibition), in words ([2]; listed as 37/01): cytostatic activity (growth inhibition) in the concentrations evaluated
Deaths (n), single animal ([5]; 2.5 g/Kg via intraperitoneal): 0
Initial Weight, Average ± dpm ([5]; 2.5 g/Kg via intraperitoneal): 24.60 ± 2.51 g
Initial Weight, single animal ([5]; 2.5 g/Kg via intraperitoneal): 24.5 g and 25.4 g (2×) and 24.1 g and 26.6 g and 24.8 g and 22.5 g and 29.7 g and 22.4 g and 20.6 g
Final Weight, Average ± dpm ([5]; 2.5 g/Kg via intraperitoneal): 27.88 g
Final Weight, single animal ([5]; 2.5 g/Kg via intraperitoneal): 26.4 g and 28.0 g and 28.6 g and 27.4 g and 29.0 g and 27.8 g and 25.0 g and 31.2 g and 25.4 g and 22.8 g
Deaths (n), single animal ([5]; 3.0 g/Kg via intraperitoneal): 0 (9×) and 1
Initial Weight, Average ± dpm ([5]; 3.0 g/Kg via intraperitoneal): 25.47 ± 2.43 g
Initial Weight, single animal ([5]; 3.0 g/Kg via intraperitoneal): 28.3 g and 30.9 g and 24.6 g and 25.4 g and 25.1 g and 23.2 g and 23.6 g (2×) and 26.0 g and 24.0 g
Final Weight, Average ± dpm ([5]; 3.0 g/Kg via intraperitoneal): 27.81 g
Final Weight, single animal ([5]; 3.0 g/Kg via intraperitoneal): 30.3 g and 32.5 g and 25.9 g and 28.0 g and 27.9 g and 25.6 g and 26.0 g and 25.8 g and 28.3 g and Death
Deaths (n), single animal ([5]; 4.0 g/Kg via intraperitoneal): 0 (9×) and 1
Initial Weight, Average ± dpm ([5]; 4.0 g/Kg via intraperitoneal): 26.41 ± 3.52 g
Initial Weight, single animal ([5]; 4.0 g/Kg via intraperitoneal): 29.8 g and 25.5 g and 33.2 g and 25.9 g and 26.3 g and 28.9 g and 26.7 g and 23.3 g (2×) and 21.2 g
Final Weight, Average ± dpm ([5]; 4.0 g/Kg via intraperitoneal): 28.98 g
Final Weight, single animal ([5]; 4.0 g/Kg via intraperitoneal): 32.5 g and 26.9 g and 35.9 g and 28.9 g and 29.0 g and 30.2 g and 28.0 g and 25.9 g and 23.5 g and Death
Deaths (n), single animal ([5]; 5.0 g/Kg via intraperitoneal): 0 (8×) and 1 (2×)
Initial Weight, Average ± dpm ([5]; 5.0 g/Kg via intraperitoneal): 23.68 ± 1.42 g
Initial Weight, single animal ([5]; 5.0 g/Kg via intraperitoneal): 24.9 g and 21.0 g and 25.4 g and 22.2 g and 24.0 g and 23.8 g and 22.5 g and 23.5 g and 24.2 g and 25.3 g
Final Weight, Average ± dpm ([5]; 5.0 g/Kg via intraperitoneal): 25.86 g
Final Weight, single animal ([5]; 5.0 g/Kg via intraperitoneal): 25.9 g (2×) and 24.0 g and 27.8 g and 25.6 g and 27.0 g and 25.8 g and 24.9 g and Death (2×)
toxicity classification according to Loomis, in words ([5]; from LD50 (5.0-15 g/Kg = practically nontoxic)): practically nontoxic
LD50 at 14 days ([5]; male, Swiss albino, mouse, in vivo, ip, acute toxicity, via intraperitoneal, linear regression, 14 days of observation): 8540 mg/kg
